Laboratory results published in patent US5856175A, “Device for detecting microorganisms” (priority 1996, dated 1999).

Key:
[1] = system: Escherichia coli (ATCC number 11775); assay: Carbon source utilization in carbon dioxide sensor plates (Example 6); assay type: cell-based; conditions: 0.5% bromosuccinic acid
Protocol: (§1) 50 ml Kodak Universal Indicator was evaporated to dryness and resuspended in 2 ml HPCL grade isopropanol. 240 mg of phenolphthalein, sodium salt, dissolved in 2 ml of water was added to 1 ml of the concentrated Universal Indicator solution. 150 microliters of CAPS buffer (3-{cyclohexlamino}-1-propanesulfonic acid), pH 10.4, 500 mM was mixed with the phenolphthalein/Universal Indicator solution. This solution was added to 10 grams of GE RTV 615 A silicone that had been degassed for approximately 15 minutes. The silicone and indicator emulsion was mixed by hand stirring. 0.1 grams of white silicone pigment and 2 grams of GE RTV 615 B was added to the mixture. The mixture was hand mixed and degassed for approximately 5 minutes. The emulsion was transferred into a pressurized syringe dispenser fitted to an "air brush" sprayer and sprayed into a polystyrene 24 well plate that had previously been sprayed with 2 coats of GE silicone primer SS 4120. Enough of the indicator/silicone emulsion was sprayed into the wells to coat the bottom surface. The plate was then placed in a humidified oven and cured at 50° C. overnight. This spraying process was repeated on 3 consecutive days for a total of 3 coatings to the wells.
(§2) Two organisms, Escherichia coli (ATCC number 11775) and Pseudomonas aeruginosa (ATCC number 1014), both type strains, were grown overnight (17 hours) in a complex medium as described in Example 3 C, at 37° C., with shaking. The organisms were harvested, spun down at 11950-X-g, at 4° C. for 20 minutes. The supernatant was poured off and the organisms were resuspended in 0.9% sterile saline to an OD600 =5.0.
(§3) Each well of the prepared microtiter plate contained 1 ml of one of the following three media:
(§4) a) a minimal medium buffered with 50 mM Hepes buffer, pH 7.2, containing no carbon source (the negative control);
(§5) b) the same medium as the negative control except that it contained 0.5% bromosuccinic acid; and
(§6) c) an undefined medium Trypticase soy yeast extract medium, buffered with 50 mM Hepes, pH 7.2 (the positive control).
(§7) Twenty microliters of each prepared organism was added to duplicate wells of each type of media.
(§8) The wells were sealed with cork stoppers and the plate was incubated at 37° C. Color changes of the sensor on the bottom of the plate were monitored by eye over a 6 hour period. After approximately 4 hours, two distinct patterns could be seen. […] The positive control wells for E. coli changed from purple to green to yellow to orange, indicating a pH change of the sensor from 10 to approximately 6. The positive control well for P. aeruginosa changed from purple to green to yellow (a pH change of the sensor from 10 to approximately 7). The wells with the bromosuccinic acid medium gave the most distinction between the two organisms. […]

[2] = system: Pseudomonas aeruginosa (ATCC number 1014); assay: as above; assay type: cell-based; conditions: 0.5% bromosuccinic acid
Protocol: as §1, §2, §3, §4, §5, §6, §7, §8

In the case of O=C(O)CC(Br)C(=O)O (stereo not shown) [bromosuccinic acid], the “Utilization as carbon source to produce CO2” value [1] is reported as “able to utilize this carbon source only slightly to produce CO2”, the “pH of the sensor reached (change from 10)” value ([1]; four hours, 37° C., by eye) is reported as 8.5 pH and the “Utilization as carbon source to produce CO2” value [2] is reported as “preferred carbon source”. For the same compound, the “pH of the sensor reached (change from 10)” value ([2]; four hours, 37° C., by eye) was “approximately 6 pH”.
